IC50 data for 17 compounds are collected here from patent US9012489B2, “Phenyl-3-aza-bicyclo[3.1.0]hex-3-yl-methanones and the use thereof as medicament” (Boehringer Ingelheim International GmbH, priority 2011, dated 2015).

The test concerns the target T1, GlyT1 transporter (Homo sapiens, UniProt P48067).
T1 construct: endogenously expressing the GlyT1 transporter; host or cells: SK-N-MC human neuroblastoma cells
T1 sequence (P48067 1-706): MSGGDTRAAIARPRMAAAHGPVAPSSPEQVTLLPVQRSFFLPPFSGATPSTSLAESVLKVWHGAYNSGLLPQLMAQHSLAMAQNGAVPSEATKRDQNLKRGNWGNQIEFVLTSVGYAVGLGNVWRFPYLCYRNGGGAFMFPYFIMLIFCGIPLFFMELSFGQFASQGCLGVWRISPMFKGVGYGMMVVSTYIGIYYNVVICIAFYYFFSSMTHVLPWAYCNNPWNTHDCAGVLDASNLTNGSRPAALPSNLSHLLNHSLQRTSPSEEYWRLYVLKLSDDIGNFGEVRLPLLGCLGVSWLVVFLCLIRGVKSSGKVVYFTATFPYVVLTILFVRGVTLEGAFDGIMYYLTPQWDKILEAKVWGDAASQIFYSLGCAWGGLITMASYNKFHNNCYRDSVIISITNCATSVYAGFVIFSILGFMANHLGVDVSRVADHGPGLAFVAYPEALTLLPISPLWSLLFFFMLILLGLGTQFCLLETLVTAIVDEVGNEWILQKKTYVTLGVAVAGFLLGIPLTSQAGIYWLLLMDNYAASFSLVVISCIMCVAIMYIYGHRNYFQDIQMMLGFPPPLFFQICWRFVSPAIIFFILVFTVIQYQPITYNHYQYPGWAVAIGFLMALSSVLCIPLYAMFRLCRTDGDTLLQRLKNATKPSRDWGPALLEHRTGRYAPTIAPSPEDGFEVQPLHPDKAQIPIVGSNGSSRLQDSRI
Briefly: GlyT1 assay: 3H-glycine uptake into SK-N-MC cells (Cytostar-T format). It is filed as cell-based. The note with it: glycine uptake in human SK-N-MC cells endogenously expressing GlyT1; 500 nM glycine, 1% DMSO, signal recorded over 60 min. The source says: Cells expressing either endogenously the GlyT1 transporter like JAR cells (human placental choriocarcinoma cells; e.g. WO 2008/002583) or SK-N-MC cells (human neuroblastoma cells; Depoortere et al., 2005. Neuropsychopharmacology 30:1963-1985) or primary neurons or cells which have been transfected with a plasmid encoding the cDNA of a functional GlyT1 transporter and stably or transiently express GlyT1 (e.g. WO 2006/08200) can be used to monitor glycine uptake in cells. Different protocols for determination of the glycine uptake into the cells described above can be applied in order to identify and rank compounds which interfere with glycine uptake in the selected cell.
Compounds outlined in the examples below were characterized using human SK-N-MC cells (ATCC number HTB-10) endogenously expressing the GlyT1 transporter which is responsible for the uptake of glycine into these cells and the uptake of glycine into these cells is monitored using the Cytostar-T assay format (GE Healthcare, RPNQ0162) which is based on the radioactive glycine taken up by the cells and brought into proximity with the scintillant contained within the base of the plate. The radioactive decay is converted to a light signal based on the integration of the scintillation matrix into the assay plate. The uptake is recorded as kinetic and the slope of the measured counts over time is used to calculate IC50.
In detail, SK-N-MC cells are seeded into 96-well Cytostar-T assay plates at a density of 200,000 cells/well and grown for 16-18 hours to confluence in growth medium as recommended by ATCC. Before starting the assay, cells are washed once with HBSS (Hank's buffered salt solution; Sigma, H8264) cont. 5 mM alanine (referred in here as HBSS/Ala) and afterwards the following reagents are added: • 1. 80 μl/well HBSS/Ala • 2. 20 μl/well of HBSS/Ala containing 6× the concentration of compound in 6% DMSO • 3. approx. 5-10 min incubation • 4. 20 μl/well 3 μM glycine (^3H-glycine (Perkin Elmer, NET004001MC, specific activity: 52 Ci/mmol; diluted 1:1 with unlabelled glycine) in HBSS/Ala.
In the final assay, glycine concentration is 500 nM (250 nM derived from the ^3H-glycine Perkin Elmer, 250 nM unlabelled glycine), DMSO concentration is 1%.
The assay plate is immediately after addition of the ^3H-glycine placed into a Micro-Beta Counter (Perkin Elmer) and the signal is recorded over 60 min.
To calculate uptake, the slope in the linear range of the kinetics is determined using GraphPadPrism and for the different slopes at the selected concentrations IC50 are calculated by curve fitting using the software GraphPadPrism.
Maximal glycine uptake in every experiment is determined by incubation of SK-N-MC cells with substrate but without inhibitor. Unspecific uptake of glycine by the cells is determined by incubating the cells with substrate and a reference GlyT1 inhibitor e.g. 10 μM RG-1678 (Pinard et al., 2010, J. Med. Chem. 53(12):4603-14).
Compounds are diluted from 10 mM stocks and in general, for IC50 determination 8 compound concentrations are used.
Usually IC50 stands for the concentration that gives 50% inhibition. A higher IC50 goes with weaker potency in that assay. In the case of `C[C@@H](Oc1ccc(S(C)(=O)=O)cc1C(=O)N1CC2CC2(c2nc(C(F)(F)F)no2)C1)C(F)(F)F` (mixture of isomers) [Example 37, [5-Methanesulfonyl-2-(2,2,2-trifluoro-1-methyl-ethoxy)-phenyl]-[1-(3-trifluoromethyl-[1,2,4]oxadiazol-5-yl)-3-aza-bicyclo[3.1.0]hex-3-yl]-methanone], the 50% inhibitory concentration (IC50) amounted to 34 nM.

For `Cc1nnc(C23CC2CN(C(=O)c2cc(S(C)(=O)=O)ccc2O[C@@H](C)C(F)(F)F)C3)o1` (mixture of isomers) [Example 38, [5-Methanesulfonyl-2-(2,2,2-trifluoro-1-methyl-ethoxy)-phenyl]-[1-(5-methyl-[1,3,4]oxadiazol-2-yl)-3-aza-bicyclo[3.1.0]hex-3-yl]-methanone], the IC50 amounted to 89 nM.

`CCS(=O)(=O)c1ccc(O[C@@H](C)C(F)(F)F)c(C(=O)N2CC3CC3(c3noc(C(F)(F)F)n3)C2)c1` (mixture of isomers) [Example 40, [5-Ethanesulfonyl-2-(2,2,2-trifluoro-1-methyl-ethoxy)-phenyl]-[1-(5-trifluoromethyl-[1,2,4]oxadiazol-3-yl)-3-aza-bicyclo[3.1.0]hex-3-yl]-methanone] came in with an IC50 of 19 nM.

`C[C@@H](Oc1ccc(S(C)(=O)=O)cc1C(=O)N1CC2CC2(c2noc(C3CC3)n2)C1)C(F)(F)F` (mixture of isomers) [Example 41, [1-(5-Cyclopropyl-[1,2,4]oxadiazol-3-yl)-3-aza-bicyclo[3.1.0]hex-3-yl]-[5-methanesulfonyl-2-(2,2,2-trifluoro-1-methyl-ethoxy)-phenyl]-methanone] displayed an IC50 of 6 nM.

`C[C@H](Oc1ccc(S(C)(=O)=O)cc1C(=O)N1CC2CC2(c2cc(C(F)(F)F)on2)C1)C(F)(F)F` (mixture of isomers) [Example 46, [5-Methanesulfonyl-2-(2,2,2-trifluoro-1-methyl-ethoxy)-phenyl]-[1-(5-trifluoromethyl-isoxazol-3-yl)-3-aza-bicyclo[3.1.0]hex-3-yl]-methanone] displayed an IC50 of 29 nM.

Take `C[C@@H](Oc1ccc(S(C)(=O)=O)cc1C(=O)N1CC2CC2(c2cc(C(F)(F)F)on2)C1)C(F)(F)F` (mixture of isomers) [Example 49, [5-Methanesulfonyl-2-(2,2,2-trifluoro-1-methyl-ethoxy)-phenyl]-[1-(5-trifluoromethyl-isoxazol-3-yl)-3-aza-bicyclo[3.1.0]hex-3-yl]-methanone]: the IC50 is 19 nM.

For the compound `Cc1cc(C23CC2CN(C(=O)c2cc(S(C)(=O)=O)ccc2O[C@@H](C)C(F)(F)F)C3)no1` (mixture of isomers) [Example 52, [5-Methanesulfonyl-2-(2,2,2-trifluoro-1-methyl-ethoxy)-phenyl]-[1-(5-methyl-isoxazol-3-yl)-3-aza-bicyclo[3.1.0]hex-3-yl]-methanone], inhibition was half-maximal at 15 nM (IC50).

The compound `C[C@H](Oc1ccc(S(C)(=O)=O)cc1C(=O)N1CC2CC2(c2cncc(C(F)(F)F)c2)C1)C(F)(F)F` (mixture of isomers) [Example 53, [5-Methanesulfonyl-2-(2,2,2-trifluoro-1-methyl-ethoxy)-phenyl]-[1-(5-trifluoromethyl-pyridin-3-yl)-3-aza-bicyclo[3.1.0]hex-3-yl]-methanone] registered an IC50 of 70 nM.

In turn, `C[C@H](Oc1ccc(S(C)(=O)=O)cc1C(=O)N1CC2CC2(c2cccc(C(F)(F)F)n2)C1)C(F)(F)F` (mixture of isomers) [Example 54, [5-Methanesulfonyl-2-(2,2,2-trifluoro-1-methyl-ethoxy)-phenyl]-[1-(6-trifluoromethyl-pyridin-2-yl)-3-aza-bicyclo[3.1.0]hex-3-yl]-methanone] displayed an IC50 of 16 nM.

As to `C[C@H](Oc1ccc(S(C)(=O)=O)cc1C(=O)N1CC2CC2(C2=NCC(C(F)(F)F)O2)C1)C(F)(F)F` (mixture of isomers) [Example 57, [5-Methanesulfonyl-2-(2,2,2-trifluoro-1-methyl-ethoxy)-phenyl]-[1-(5-trifluoromethyl-4,5-dihydro-oxazol-2-yl)-3-aza-bicyclo[3.1.0]hexyl-3-yl]-methanone], the IC50 worked out at 354 nM.

In the case of `C[C@@H](Oc1ccc(S(C)(=O)=O)cc1C(=O)N1CC2CC2(c2noc(C(F)(F)F)n2)C1)C(F)(F)F` (mixture of isomers) [Example 58, [5-Methanesulfonyl-2-(2,2,2-trifluoro-1-methyl-ethoxy)-phenyl]-[1-(5-trifluoromethyl-[1,2,4]oxadiazol-3-yl)-3-aza-bicyclo[3.1.0]hex-3-yl]-methanone], the IC50 was determined as 17 nM.

For the compound `C[C@H](Oc1ccc(S(C)(=O)=O)cc1C(=O)N1CC2CC2(c2noc(CC(F)(F)F)n2)C1)C(F)(F)F` (mixture of isomers) [Example 61, [5-Methanesulfonyl-2-(2,2,2-trifluoro-1-methyl-ethoxy)-phenyl]-{1-[5-(2,2,2-trifluoro-ethyl)-[1,2,4]oxadiazol-3-yl]-3-aza-bicyclo[3.1.0]hex-3-yl}-methanone], the IC50 stood at 8 nM.

In turn, `C[C@H](Oc1ccc(S(C)(=O)=O)cc1C(=O)N1CC2CC2(c2noc(C3(C)COC3)n2)C1)C(F)(F)F` (mixture of isomers) [Example 62, [5-Methanesulfonyl-2-(2,2,2-trifluoro-1-methyl-ethoxy)phenyl]-{1-[5-(3-methyl-oxetan-3-yl)-[1,2,4]oxadiazol-3-yl]-3-aza-bicyclo[3.1.0]hex-3-yl}-methanone] showed an IC50 of 10 nM.

`C[C@H](Oc1ccc(S(C)(=O)=O)cc1C(=O)N1CC2CC2(c2noc(C3CC3(F)F)n2)C1)C(F)(F)F` (mixture of isomers) [Example 63, {1-[5-(2,2-Difluoro-cyclopropyl)-[1,2,4]oxadiazol-3-yl]-3-aza-bicyclo[3.1.0]hex-3-yl}-[5-methanesulfonyl-2-(2,2,2-trifluoro-1-methyl-ethoxy)-phenyl]-methanone] showed an IC50 of 10 nM.

As for `C[C@@H](Oc1ccc(S(C)(=O)=O)cc1C(=O)N1CC2CC2(c2noc(C3CC3(F)F)n2)C1)C(F)(F)F` (mixture of isomers) [Example 64, {1-[5-(2,2-Difluoro-cyclopropyl)-[1,2,4]oxadiazol-3-yl]-3-aza-bicyclo[3.1.0]hex-3-yl}-[5-methanesulfonyl-2-(2,2,2-trifluoro-1-methyl-ethoxy)-phenyl]-methanone], the IC50 came out at 4 nM.

In turn, `C[C@H](Oc1ccc(S(C)(=O)=O)cc1C(=O)N1CC2CC2(c2noc(C3(C(F)(F)F)CC3)n2)C1)C(F)(F)F` (mixture of isomers) [Example 65, [5-Methanesulfonyl-2-(2,2,2-trifluoro-1-methyl-ethoxy)-phenyl]-{1-[5-(1-trifluoromethyl-cyclopropyl)-[1,2,4]oxadiazol-3-yl]-3-aza-bicyclo[3.1.0]hex-3-yl}-methanone] yielded an IC50 of 9 nM.

As for `C[C@@H](Oc1ccc(S(C)(=O)=O)cc1C(=O)N1CC2CC2(c2noc(C3(C(F)(F)F)CC3)n2)C1)C(F)(F)F` (mixture of isomers) [Example 68, [5-Methanesulfonyl-2-(2,2,2-trifluoro-1-methyl-ethoxy)-phenyl]-{1-[5-(1-trifluoromethyl-cyclopropyl)-[1,2,4]oxadiazol-3-yl]-3-aza-bicyclo[3.1.0]hex-3-yl}-methanone], the IC50 amounted to 7 nM.
